The subject of one test is DU-145. The test can be described thus: Cytotoxicity against human DU145 cells after 48 hrs. The following applies: DU-145, 48 h. It counts as functional, cell-based.
The next test concerns MCF7. The test can be described thus: Cytotoxicity against human MCF7 cells after 48 hrs. The format is functional, cell-based. The following applies: MCF7, 48 h.
Another test has as its system HeLa. Kind of test: Cytotoxicity against human HeLa cells after 48 hrs. The format is functional, cell-based.
In test [1] the test system is Nucleic Acid. The test can be described thus: Binding affinity to DNA assessed as DNA intercalation at 50 uM. The format is nucleic-acid assay.
For test [2], the system named is Nucleic Acid. The test can be described thus: Binding affinity to DNA assessed as DNA intercalation at 250 uM. It counts as nucleic-acid assay.
Test [3] has as its target DNA topoisomerase 2-alpha (Homo sapiens) (UniProt P11388). The test can be described thus: Inhibition of human DNA topoisomerase 2 at 50 uM by DNA relaxation assay.
The target is the same in test [4]. Kind of test: Inhibition of human DNA topoisomerase 2 at 250 uM by DNA relaxation assay.

Active and inactive are the calls of the source. The calls are words filed in the database; no cut-off is given here.

In ChEMBL document CHEMBL1157545, “Synthesis and cancer cell cytotoxicity of substituted xanthenes” (Bioorg Med Chem, 2010) one finds IC50, Activity and inhibition data, which are given here for 22 compounds.

DNA topoisomerase 2-alpha (Homo sapiens), sequence (P11388 whole entry): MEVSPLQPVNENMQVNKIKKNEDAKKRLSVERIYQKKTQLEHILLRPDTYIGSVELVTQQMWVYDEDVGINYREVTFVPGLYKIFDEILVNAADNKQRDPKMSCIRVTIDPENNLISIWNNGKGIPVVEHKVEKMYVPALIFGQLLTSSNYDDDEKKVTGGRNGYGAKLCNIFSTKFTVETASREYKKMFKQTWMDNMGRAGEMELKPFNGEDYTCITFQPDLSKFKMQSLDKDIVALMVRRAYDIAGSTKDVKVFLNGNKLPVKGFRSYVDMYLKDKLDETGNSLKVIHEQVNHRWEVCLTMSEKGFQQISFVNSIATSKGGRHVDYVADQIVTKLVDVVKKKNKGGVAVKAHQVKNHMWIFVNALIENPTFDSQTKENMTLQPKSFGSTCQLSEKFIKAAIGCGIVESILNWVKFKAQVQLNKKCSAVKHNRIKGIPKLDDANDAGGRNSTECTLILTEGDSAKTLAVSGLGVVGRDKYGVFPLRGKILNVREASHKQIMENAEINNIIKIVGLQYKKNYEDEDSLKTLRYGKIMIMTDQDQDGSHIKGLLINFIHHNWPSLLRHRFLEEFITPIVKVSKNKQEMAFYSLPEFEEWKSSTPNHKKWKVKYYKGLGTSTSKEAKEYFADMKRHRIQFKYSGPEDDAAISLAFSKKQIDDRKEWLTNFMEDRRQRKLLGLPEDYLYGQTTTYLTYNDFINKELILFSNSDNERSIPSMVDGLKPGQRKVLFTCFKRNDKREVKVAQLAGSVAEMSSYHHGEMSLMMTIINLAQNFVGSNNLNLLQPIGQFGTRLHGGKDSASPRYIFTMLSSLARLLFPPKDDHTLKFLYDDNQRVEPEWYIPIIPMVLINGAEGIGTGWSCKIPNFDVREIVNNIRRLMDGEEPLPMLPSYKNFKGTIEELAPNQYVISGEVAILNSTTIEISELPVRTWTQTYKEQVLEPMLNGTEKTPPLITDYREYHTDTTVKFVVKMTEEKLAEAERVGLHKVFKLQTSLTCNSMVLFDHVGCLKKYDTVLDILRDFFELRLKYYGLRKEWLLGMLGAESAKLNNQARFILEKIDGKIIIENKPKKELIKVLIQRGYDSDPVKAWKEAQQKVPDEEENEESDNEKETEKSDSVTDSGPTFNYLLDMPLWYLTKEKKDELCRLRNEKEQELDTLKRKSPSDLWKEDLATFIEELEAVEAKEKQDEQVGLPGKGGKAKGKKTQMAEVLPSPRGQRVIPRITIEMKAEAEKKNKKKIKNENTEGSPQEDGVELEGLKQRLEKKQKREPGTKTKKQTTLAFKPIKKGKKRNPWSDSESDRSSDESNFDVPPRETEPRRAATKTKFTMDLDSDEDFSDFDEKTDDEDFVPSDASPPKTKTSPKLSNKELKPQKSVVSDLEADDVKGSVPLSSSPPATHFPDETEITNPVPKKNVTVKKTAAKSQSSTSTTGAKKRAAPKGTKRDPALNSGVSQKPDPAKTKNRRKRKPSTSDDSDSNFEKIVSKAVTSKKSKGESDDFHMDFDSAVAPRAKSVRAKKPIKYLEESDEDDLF

As for `CN1CCN(C(=O)c2ccc3c(c2)Oc2ccccc2C3(C)O)CC1` (configuration not stated), the IC50 is 119 µM in the test on DU-145, 115 µM with MCF7 and 121 µM with HeLa. Also, the result in the test with Nucleic Acid [1] and in the test on Nucleic Acid [2] was inactive.

With `COc1cccc(C2(O)c3ccccc3Oc3ccccc32)c1`, the IC50 with DU-145 worked out at 59 µM; in the test with MCF7, 82 µM; in the test on HeLa it was 85 µM. Moreover, the inhibition result in test [3] and in test [4] was “inactive” throughout. The result in the test on Nucleic Acid [1] and in the test on Nucleic Acid [2] was inactive.

For the compound `O=c1c2ccccc2oc2ccccc12` [XANTHONE], the IC50 in the test on DU-145, in the test with MCF7 and in the test on HeLa was greater than 500 µM throughout. The result in the test with Nucleic Acid [1] and in the test on Nucleic Acid [2] was inactive.

As to `OC1(c2ccccc2)c2ccccc2Oc2ccccc21`, the half-inhibitory concentration (IC50) with DU-145, in the test on MCF7 and in the test with HeLa was greater than 500 µM in each case. Further, the outcome in the test with Nucleic Acid [1] and in the test with Nucleic Acid [2] was inactive.

Regarding `CN1CCN(C(=O)c2ccc3c(c2)Oc2ccc(Cl)cc2C3(O)c2ccccc2)CC1` (configuration not stated), the IC50 came out at 117 µM in the test on DU-145, 95 µM with MCF7 and 158 µM in the test with HeLa. The outcome in the test on Nucleic Acid [1] and in the test with Nucleic Acid [2] was inactive.

With `COc1cccc(C2(O)c3ccc(C(=O)N4CCN(C)CC4)cc3Oc3ccc(F)cc32)c1` (configuration not stated), the half-inhibitory concentration (IC50) stood at 55 µM in the test with DU-145, 46 µM with MCF7 and 85 µM in the test with HeLa. Further, the inhibition result in test [3] and in test [4] was “inactive” throughout. Moreover, the outcome in the test with Nucleic Acid [1] and with Nucleic Acid [2] was inactive.

With `COc1cccc(C2(O)c3ccc(C(=O)N4CCN(C)CC4)cc3Oc3ccc(Cl)cc32)c1` (configuration not stated), the concentration for half-maximal inhibition (IC50) turned out to be 92 µM with DU-145, 72 µM with MCF7 and 94 µM in the test on HeLa. For the same compound, the result in the test with Nucleic Acid [1] and in the test on Nucleic Acid [2] was inactive.

As to `CN1CCN(C(=O)c2ccc3c(c2)Oc2ccc(F)cc2C3(O)c2ccccc2)CC1` (configuration not stated), the 50% inhibitory concentration (IC50) in the test on DU-145 turned out to be 84 µM; in the test with MCF7, 62 µM; with HeLa, 109 µM. The inhibition result in test [3] and in test [4] was “inactive” each time. Also, the result with Nucleic Acid [1] and in the test with Nucleic Acid [2] was inactive.

As for `C=CC1(O)c2ccc(C(=O)N3CCN(C)CC3)cc2Oc2ccc(Cl)cc21` (configuration not stated), the IC50 in the test with DU-145 was 208 µM; with MCF7 it was greater than 500 µM; with HeLa, 285 µM. For the same compound, the outcome in the test on Nucleic Acid [1] and with Nucleic Acid [2] was inactive.

In the case of `CN1CCN(C(=O)c2ccc3c(c2)Oc2ccc(Cl)cc2C3(C)O)CC1` (configuration not stated), the IC50 in the test on DU-145 stood at 241 µM; in the test with MCF7 it was 160 µM; with HeLa it was 264 µM. For the same compound, the outcome in the test with Nucleic Acid [1] and in the test with Nucleic Acid [2] was inactive.

For the compound `COc1cccc(C2(O)c3ccccc3Oc3cc(C(=O)N4CCOCC4)ccc32)c1` (configuration not stated), the half-inhibitory concentration (IC50) in the test with DU-145 was 163 µM; with MCF7, 151 µM; with HeLa, 153 µM. In addition, the outcome in the test on Nucleic Acid [1] and with Nucleic Acid [2] was inactive.

For the compound `O=C(c1ccc2c(c1)Oc1ccccc1C2(O)c1ccccc1)N1CCOCC1` (configuration not stated), the IC50 with DU-145 amounted to 125 µM; in the test on MCF7 it was 134 µM; in the test on HeLa, 120 µM. Besides, the outcome in the test with Nucleic Acid [1] and in the test with Nucleic Acid [2] was inactive.

In the case of `C=CC1(O)c2ccc(C(=O)N3CCN(C)CC3)cc2Oc2ccc(F)cc21` (configuration not stated), the values for the IC50 with DU-145, in the test on MCF7 and with HeLa were greater than 300 µM, 254 µM and 230 µM, respectively. Also, the inhibition result in test [3] and in test [4] was “inactive” throughout. Moreover, the outcome in the test with Nucleic Acid [1] and with Nucleic Acid [2] was inactive.

In the case of `CN1CCN(C(=O)c2ccc3c(c2)Oc2ccccc2C3(O)c2ccccc2)CC1` (configuration not stated), the IC50 in the test with DU-145 is greater than 300 µM; with MCF7, 169 µM; in the test on HeLa, 170 µM. Besides, the result in the test with Nucleic Acid [1] and in the test with Nucleic Acid [2] was inactive.

As to `CCC1(O)c2ccccc2Oc2cc(C(=O)N3CCN(C)CC3)ccc21` (configuration not stated), the IC50 in the test on DU-145 is 195 µM; in the test with MCF7, 218 µM; with HeLa, 213 µM. Further, the result with Nucleic Acid [1] and in the test on Nucleic Acid [2] was inactive.

For `CCC1(O)c2ccc(C(=O)N3CCN(C)CC3)cc2Oc2ccc(Cl)cc21` (configuration not stated), the figures for the IC50 with DU-145, in the test with MCF7 and in the test on HeLa were 145 µM, 180 µM and 153 µM, respectively. The outcome with Nucleic Acid [1] and with Nucleic Acid [2] was inactive.

On to `CCC1(O)c2ccc(C(=O)N3CCN(C)CC3)cc2Oc2ccc(F)cc21` (configuration not stated), for which the IC50 worked out at 139 µM in the test on DU-145, 138 µM in the test with MCF7 and 127 µM with HeLa. Further, the result with Nucleic Acid [1] and in the test on Nucleic Acid [2] was inactive.

On to `C=CC1(O)c2ccccc2Oc2cc(C(=O)N3CCN(C)CC3)ccc21` (configuration not stated), for which the IC50 with DU-145 stood at 63 µM; in the test on MCF7, 74 µM; in the test on HeLa, 74 µM. The result with Nucleic Acid [1] and in the test with Nucleic Acid [2] was inactive.

As to `CN1CCN(C(=O)c2ccc3c(c2)Oc2ccc(F)cc2C3(C)O)CC1` (configuration not stated), the concentration for half-maximal inhibition (IC50) was greater than 300 µM with DU-145, 208 µM in the test on MCF7 and greater than 300 µM in the test with HeLa. Also, the result in the test with Nucleic Acid [1] and in the test with Nucleic Acid [2] was inactive.

Regarding `CN(C)C(=O)c1ccc2c(c1)Oc1ccccc1C2(O)c1ccccc1` (configuration not stated), the IC50 in the test on DU-145 was 59 µM; in the test on MCF7 it was 62 µM; in the test on HeLa it was 67 µM. Further, the inhibition result in test [3] and in test [4] was “inactive” in each case. The outcome with Nucleic Acid [1] and in the test on Nucleic Acid [2] was inactive.

Take `COc1cccc(C2(O)c3ccccc3Oc3cc(C(=O)N4CCN(C)CC4)ccc32)c1` (configuration not stated): the IC50 with DU-145 came to 139 µM; in the test on MCF7, 125 µM; in the test with HeLa, 111 µM. Moreover, the outcome in the test on Nucleic Acid [1] and in the test on Nucleic Acid [2] was inactive.

Consider `COc1cccc(C2(O)c3ccccc3Oc3cc(C(=O)N(C)C)ccc32)c1` (configuration not stated), for which the IC50 with DU-145 is 36 µM; in the test with MCF7, 50 µM; in the test with HeLa it was 44 µM. Also, the inhibition entry in test [3] and in test [4] was “inactive” each time. In addition, the result in the test with Nucleic Acid [1] and in the test on Nucleic Acid [2] was inactive.

What is called IC50 is the point on the concentration scale where inhibition reaches its midpoint. Low readings indicate greater potency, high ones weaker potency.
